Earlier results on three compounds are cited in patent US12420242B1 (KING SAUD UNIVERSITY, priority 2025, dated 2025).

Assay in data set [1]: not given
This is another data set of the same source.

Values after ≈ are worked out from the molar mass of the structure shown. Read-outs that look alike come from different tables or passages of the source.

Consider `CCCCCCC` [n-heptane], for which the Density (Table 1) was 0.68 g · cm^−3. For the same compound, the solubility in water in data set [1] and in data set [1] (Table 1) was 2 µg/mL (≈ 20 µM) in each case.
On to `c1ccsc1` [thiophene], for which the Density is given as 1.05 g/mL. Under “Table 1”, the Density was 1.05 g · cm^−3.
Take `O` [water]: the Density is given as 1.0 g/mL. For the same compound, the Density (Table 1) is given as 1.00 g · cm^−3.
